# According to patent US20160263116A1, “COMBINATIONS” (GlaxoSmithKline LLC, priority 2012, published 2016):
# How the values were obtained:
# [1] = test system: ONE58 mesothelioma cell line; experiment: Anchorage-independent growth-death assay, ONE58; format: cell-based, human; details: single agent, 6 days; for IC50: read-out: gIC50; for Ymin-T0: negative = net cell kill
# Protocol: (§1) Five human mesothelioma cell lines were used in these studies. Cells were grown in RPMI1640 media containing 10% FBS, 1% L-glutamine, 1% sodium pyruvate under standard cell culture conditions. The mesothelioma cell lines: Mero-14, Mero-82, NCI-H2052, NO36, and ONE58. The cellular response to Compound A or B was evaluated in an anchorage-independent cell growth assay that quantified the extent of cell growth inhibition and the net change in cell population. The assay was performed in black, clear bottom, untreated 384-well plates (Greiner #781096). It is important to use either non-tissue culture treated or Low Attachment plates to prevent cells from adhering to the plate during the assay. In brief, the assay was performed as described below. A 1% (weight/volume) stock of methylcellulose solution was prepared by dissolving 5 grams of methylcellulose (Sigma #M0512) in 495 mL of cell culture medium. […] Media can be substituted if the cells require different cell culture medium for growth. The dissolution often took a day with vigorous stirring at 4° C. maintaining sterile conditions. Cells were plated into a 384 well plate with assay conditions of 0.65% methylcellulose (final concentration) and 1000 cells per well in a final volume of 48 μL. […] The cells were mixed by inversion to distribute evenly, bubbles were dispersed and 48 μL was placed into the well with a positive displacement pipette. The plates were placed in a cell culture incubator containing 5% CO2 at 37° C. Serial dilution of compound in DMSO was done in a 384 well plate starting with μL of stock compound solution in the first column and 10 μL of DMSO in the other wells. Ten μL from the compound well was transferred into the DMSO containing well, mixed, and the serial dilution was continued with 10 μL transfers across the plate. Then, 4 μL of this DMSO diluted compound was added into wells of a new 384 well plate containing 105 μL of appropriate growth medium. This 'compound plate' was used to dose the assay plates containing cells in methylcellulose. For combination experiments, 20 μL of stock compound solution was a mixture of Compound A and Compound B at the designated ratio. For an example, for 1 to 1 ratio, 10 ul of Compound A at 40 mM and 10 ul of Compound B at 40 mM was mixed to generate ul of stock compound solution with both Compound A and Compound B at 20 mM concentration. […] Serial dilution and compound plate dilution was done as described above. Two μL from each well of the 'compound plate' was added to the individual wells of the 'cell plates' containing the 48 μL of cells in methylcellulose to initiate the assay. These assay plates were placed in the cell culture incubator for 6 days. One 'cell plate' was selected at random and was developed (see below) with Cell [NT] the time compound was added to the remaining cell plates and represents the time equal zero (T0) plate, i.e. it represents the number of cells at the time of compound addition. After 6 days the assay was stopped and the plates were developed by placing a black sticker on bottom of each plate to block light, 25 μL of CTG was added and then plates were incubate for 20 minutes at room temperature. The plates were scanned using a luminescence protocol on the EnVision (Perkin-Elmer). Results were expressed as a percent of the T0 value and plotted against the compound concentration. […] Positive values indicate net cell growth and negative values represent net cell kill. […] The results for the combination were analyzed by determination of Combination Index (CI) values using both mutually exclusive and mutually non-exclusive assumptions (12). The XC50 denotes that each parameter from the growth-death analysis was used, either gIC50 or gIC100 or […] values, to calculate the CI values. The A+B represents the XC50 value for the combination relative to the concentration of A and the B+A represents the XC50 value for the combination relative to the concentration of B in the combination.
# [2] = test system: Mero-82 mesothelioma cell line; experiment: Anchorage-independent growth-death assay, Mero-82; format: cell-based, human; details: single agent, 6 days; for EC50 / IC50: Homo sapiens, 144 h; for EC50 / IC50 / gIC100: anchorage-independent; for EC50: read-out: dEC50; for IC50: read-out: gIC50; for Ymin-T0: negative = net cell kill
# Protocol: as §1
# [3] = test system: Mero-14 mesothelioma cell line; experiment: Anchorage-independent growth-death assay, Mero-14; format: cell-based, human; details: single agent, 6 days; for EC50 / IC50: Homo sapiens, 144 h; for EC50 / IC50 / gIC100: anchorage-independent; for EC50: read-out: dEC50; for IC50: read-out: gIC50; for Ymin-T0: negative = net cell kill
# Protocol: as §1
# [4] = test system: five human mesothelioma cell lines; experiment: Anchorage-independent growth-death assay, summary over the cell line panel; format: cell-based; details: 6 days of compound exposure, FIG. 4
# Protocol: Five human mesothelioma cell lines were used in these studies. Cells were grown in RPMI1640 media containing 10% FBS, 1% L-glutamine, 1% sodium pyruvate under standard cell culture conditions. The mesothelioma cell lines: Mero-14, Mero-82, NCI-H2052, NO36, and ONE58.
# The cellular response to Compound A or B was evaluated in an anchorage-independent cell growth assay that quantified the extent of cell growth inhibition and the net change in cell population. The assay was performed in black, clear bottom, untreated 384-well plates (Greiner #781096). It is important to use either non-tissue culture treated or Low Attachment plates to prevent cells from adhering to the plate during the assay. In brief, the assay was performed as described below.
# A 1% (weight/volume) stock of methylcellulose solution was prepared by dissolving 5 grams of methylcellulose (Sigma #M0512) in 495 mL of cell culture medium. […]
# After 6 days the assay was stopped and the plates were developed by placing a black sticker on bottom of each plate to block light, 25 μL of CTG was added and then plates were incubate for 20 minutes at room temperature. The plates were scanned using a luminescence protocol on the EnVision (Perkin-Elmer).
# Results were expressed as a percent of the T0 value and plotted against the compound concentration. […]
# [5] = test system: NO36 mesothelioma cell line; experiment: Anchorage-independent growth-death assay, NO36; format: cell-based, human; details: single agent, 6 days; for IC50: Homo sapiens, 144 h, read-out: gIC50; for Ymin-T0: negative = net cell kill
# Protocol: (§2) Five human mesothelioma cell lines were used in these studies. Cells were grown in RPMI1640 media containing 10% FBS, 1% L-glutamine, 1% sodium pyruvate under standard cell culture conditions. The mesothelioma cell lines: Mero-14, Mero-82, NCI-H2052, NO36, and ONE58. The cellular response to Compound A or B was evaluated in an anchorage-independent cell growth assay that quantified the extent of cell growth inhibition and the net change in cell population. The assay was performed in black, clear bottom, untreated 384-well plates (Greiner #781096). It is important to use either non-tissue culture treated or Low Attachment plates to prevent cells from adhering to the plate during the assay. In brief, the assay was performed as described below. A 1% (weight/volume) stock of methylcellulose solution was prepared by dissolving 5 grams of methylcellulose (Sigma #M0512) in 495 mL of cell culture medium. […] Media can be substituted if the cells require different cell culture medium for growth. The dissolution often took a day with vigorous stirring at 4° C. maintaining sterile conditions. Cells were plated into a 384 well plate with assay conditions of 0.65% methylcellulose (final concentration) and 1000 cells per well in a final volume of 48 μL. […] The cells were mixed by inversion to distribute evenly, bubbles were dispersed and 48 μL was placed into the well with a positive displacement pipette. The plates were placed in a cell culture incubator containing 5% CO2 at 37° C. Serial dilution of compound in DMSO was done in a 384 well plate starting with μL of stock compound solution in the first column and 10 μL of DMSO in the other wells. Ten μL from the compound well was transferred into the DMSO containing well, mixed, and the serial dilution was continued with 10 μL transfers across the plate. Then, 4 μL of this DMSO diluted compound was added into wells of a new 384 well plate containing 105 μL of appropriate growth medium. This 'compound plate' was used to dose the assay plates containing cells in methylcellulose. For combination experiments, 20 μL of stock compound solution was a mixture of Compound A and Compound B at the designated ratio. For an example, for 1 to 1 ratio, 10 ul of Compound A at 40 mM and 10 ul of Compound B at 40 mM was mixed to generate ul of stock compound solution with both Compound A and Compound B at 20 mM concentration. […] Serial dilution and compound plate dilution was done as described above. Two μL from each well of the 'compound plate' was added to the individual wells of the 'cell plates' containing the 48 μL of cells in methylcellulose to initiate the assay. These assay plates were placed in the cell culture incubator for 6 days. One 'cell plate' was selected at random and was developed (see below) with Cell [NT] the time compound was added to the remaining cell plates and represents the time equal zero (T0) plate, i.e. it represents the number of cells at the time of compound addition. […] The plates were scanned using a luminescence protocol on the EnVision (Perkin-Elmer). Results were expressed as a percent of the T0 value and plotted against the compound concentration. […] The results for the combination were analyzed by determination of Combination Index (CI) values using both mutually exclusive and mutually non-exclusive assumptions (12). […]
# [6] = test system: NCI-H2052 mesothelioma cell line; experiment: Anchorage-independent growth-death assay, NCI-H2052; format: cell-based, human; details: single agent, 6 days; for IC50: Homo sapiens, 144 h, read-out: gIC50; for Ymin-T0: negative = net cell kill
# Protocol: as §2
# [7] = Homo sapiens, 144 h, anchorage-independent
Structure (SMILES),"IC50 [1, 7]",gIC100 ([1]; anchorage-independent),Ymin-T0 [1],EC50 [2],IC50 [2],gIC100 [2],Ymin-T0 [2],EC50 [3],IC50 [3],gIC100 [3],Ymin-T0 [3],"net change in cell population (Ymin-T0), in words [4]",IC50 ([5]; anchorage-independent),Ymin-T0 [5],IC50 ([6]; anchorage-independent),gIC100 ([6]; anchorage-independent),Ymin-T0 [6],"EC50 ([1]; Homo sapiens, 144 h, anchorage-independent, read-out: dEC50)",gIC100 ([5]; anchorage-independent)
"CONC(=O)c1ccccc1Nc1cc(Nc2cc(C)nn2C(C)C)ncc1Cl [Compound A, 2-[(5-Chloro-2-{[3-methyl-1-(1-methylethyl)-1H-pyrazol-5-yl]amino}-4-pyridinyl)amino]-N-(methyloxy)benzamide]",0.023 µM,6.135 µM,−14%,6.9 µM,0.016 µM,983 nM,−53%,9.58 µM,0.056 µM,3888 nM,−52%,generally cytostatic,17 µM,134%,0.408 µM,5.73 µM,−30%,,
"CC(=O)Nc1cccc(-n2c(=O)n(C3CC3)c(=O)c3c(Nc4ccc(I)cc4F)n(C)c(=O)c(C)c32)c1 [Compound B, N-{3-[3-cyclopropyl-5-(2-fluoro-4-iodo-phenylamino)-6,8-dimethy-2,4,7-trioxo-3,4,6,7-tetrahydro-2H-pyrido[4,3-d]pyrimidin-1-yl]phenyl}acetamide]",0.0088 µM,0.045 µM,−92%,0.191 µM,0.01 µM,67 nM,−89%,0.071 µM,0.0066 µM,26 nM,−78%,cytotoxic in three of the five cell lines,0.134 µM,−17%,0.016 µM,,31%,0.19 µM,2345 nM
